Measured values reported in US9328138B2 (priority 2011, dated 2016).
Structures can show the parent of a compound that is named as a salt.

What was measured:
[1] = target: T1, HCV genotype 1b (BK) NS3 modified enzyme with a R155K mutation (Hepatitis C virus genotype 1b, UniProt P26663, R1181K); assay: HCV NS3 protease time-resolved fluorescence (TRF) assay, genotype 1b R155K; type: biochemical; settings: Ki 1b R155K
T1 construct: HCV genotype 1b (BK) NS3 modified enzyme
Outline: (§1)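 Inhibitor titrations are mixed with NS3/NS4A in pH 7.5 HEPES buffer containing 10 mM DTT and 15% glycerol for 10 min before substrate (25 nM final) is added. After 6 h at room temperature, delayed fluorescence is read and fitted to a four-parameter curve for IC50.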

[2] = target: HCV NS3 protease genotype 3a (3A-1) (Hepatitis C virus genotype 3a, UniProt Q81258); assay: HCV NS3 protease time-resolved fluorescence (TRF) assay, genotype 3a; type: biochemical; settings: Ki 3a
Outline: as §1

[3] = first of two values printed in the cell (not explained)
[4] = second of two values printed in the cell (not explained)

Structure (SMILES) | Ki [1, 3] | Ki [1, 4] | Ki [2]
C=C[C@@H]1C[C@]1(NC(=O)[C@@H]1C[C@@H]2CN1C(=O)[C@H](C1CCCCC1)NC(=O)O[C@@H]1C[C@H]1CCCCCc1c(nc3ccccc3c1OC1CCN(CC3CC3)CC1)O2)C(=O)NS(=O)(=O)C1(C)CC1 [Example 238, 4-{[(1aR,5S,8S,10R,22aR)-5-cyclohexyl-8-{[(1R,2S)-2-ethenyl-1-{[(1-methylcyclopropyl)sulfonyl]carbamoyl}cyclopropyl]carbamoyl}-3,6-dioxo-1,1a,3,4,5,6,9,10,18,19,20,21,22,22a-tetradecahydro-8H-7,10-methanocyclopropa[18,19][1,10,3,6]dioxadiazacyclononadecino[11,12-b]quinolin-17-yl]oxy}-1-(cyclopropylmethyl)piperidinium formate] | 0.031 nM | 0.047 nM | 0.9 nM
C=C[C@@H]1C[C@]1(NC(=O)[C@@H]1C[C@@H]2CN1C(=O)[C@H](C1CCCCC1)NC(=O)O[C@@H]1C[C@H]1CCCCCc1c(nc3ccccc3c1OC1CCN(CC)CC1)O2)C(=O)NS(=O)(=O)C1(C)CC1 [Example 239, 4-{[(1aR,5S,8S,10R,22aR)-5-cyclohexyl-8-{[(1R,2S)-2-ethenyl-1-{[(1-methylcyclopropyl)sulfonyl]carbamoyl}cyclopropyl]carbamoyl}-3,6-dioxo-1,1a,3,4,5,6,9,10,18,19,20,21,22,22a-tetradecahydro-8H-7,10-methanocyclopropa[18,19][1,10,3,6]dioxadiazacyclononadecino[11,12-b]quinolin-17-yl]oxy}-1-ethylpiperidinium formate] | 0.016 nM | 0.064 nM | 0.278 nM
C=C[C@@H]1C[C@]1(NC(=O)[C@@H]1C[C@@H]2CN1C(=O)[C@H](C1CCCCC1)NC(=O)O[C@@H]1C[C@H]1CCCCCc1c(nc3ccccc3c1OCCCN1CCOCC1)O2)C(=O)NS(=O)(=O)C1(C)CC1 [Example 240, 4-(3-{[(1aR,5S,8S,10R,22aR)-5-cyclohexyl-8-{[(1R,2S)-2-ethenyl-1-{[(1-methylcyclopropyl)sulfonyl]carbamoyl}cyclopropyl]carbamoyl}-3,6-dioxo-1,1a,3,4,5,6,9,10,18,19,20,21,22,22a-tetradecahydro-8H-7,10-methanocyclopropa[18,19][1,10,3,6]dioxadiazacyclononadecino[11,12-b]quinolin-17-yl]oxy}propyl)morpholin-4-ium formate] | 0.019 nM | 0.28 nM | 2.9 nM
C=C[C@@H]1C[C@]1(NC(=O)[C@@H]1C[C@@H]2CN1C(=O)[C@H](C1CCCCC1)NC(=O)O[C@@H]1C[C@H]1CCCCCc1c(nc3ccccc3c1OCCCNC1CC1)O2)C(=O)NS(=O)(=O)C1(C)CC1 [Example 241, N-(3-{[(1aR,5S,8S,10R,22aR)-5-cyclohexyl-8-{[(1R,2S)-2-ethenyl-1-{[(1-methylcyclopropyl)sulfonyl]carbamoyl}cyclopropyl]carbamoyl}-3,6-dioxo-1,1a,3,4,5,6,9,10,18,19,20,21,22,22a-tetradecahydro-8H-7,10-methanocyclopropa[18,19][1,10,3,6]dioxadiazacyclononadecino[11,12-b]quinolin-17-yl]oxy}propyl)cyclopropanaminium formate] | 0.021 nM | 0.162 nM | 2.79 nM
C=C[C@@H]1C[C@]1(NC(=O)[C@@H]1C[C@@H]2CN1C(=O)[C@H](C1CCCCC1)NC(=O)O[C@@H]1C[C@H]1CCCCCc1c(nc3ccccc3c1OCCCNC1CCC1)O2)C(=O)NS(=O)(=O)C1(C)CC1 [Example 242, N-(3-{[(1aR,5S,8S,10R,22aR)-5-cyclohexyl-8-{[(1R,2S)-2-ethenyl-1-{[(1-methylcyclopropyl)sulfonyl]carbamoyl}cyclopropyl]carbamoyl}-3,6-dioxo-1,1a,3,4,5,6,9,10,18,19,20,21,22,22a-tetradecahydro-8H-7,10-methanocyclopropa[18,19][1,10,3,6]dioxadiazacyclononadecino[11,12-b]quinolin-17-yl]oxy}propyl)cyclobutanaminium formate] | 0.013 nM | 0.072 nM | 0.935 nM
C=C[C@@H]1C[C@]1(NC(=O)[C@@H]1C[C@@H]2CN1C(=O)[C@H](C1CCCCC1)NC(=O)O[C@@H]1C[C@H]1CCCCCc1c(nc3ccccc3c1OCCCNC1CC(F)(F)C1)O2)C(=O)NS(=O)(=O)C1(C)CC1 [Example 243, (1aR,5S,8S,10R,22aR)-5-cyclohexyl-17-{3-[(3,3-difluorocyclobutyl)amino]propoxy}-N-[(1R,2S)-2-ethenyl-1-{[(1-methylcyclopropyl)sulfonyl]carbamoyl}cyclopropyl]-3,6-dioxo-1,1a,3,4,5,6,9,10,18,19,20,21,22,22a-tetradecahydro-8H-7,10-methanocyclopropa[18,19][1,10,3,6]dioxadiazacyclononadecino[11,12-b]quinoline-8-carboxamide] | 0.033 nM | 0.275 nM | 3.31 nM
C=C[C@@H]1C[C@]1(NC(=O)[C@@H]1C[C@@H]2CN1C(=O)[C@H](C(C)(C)C)NC(=O)O[C@@H]1C[C@H]1CCCCCc1c(nc3ccccc3c1-c1ccncc1)O2)C(=O)NS(=O)(=O)C1(C)CC1 [Example 244, (1aR,5S,8S,10R,22aR)-5-tert-butyl-N-[(1R,2S)-2-ethenyl-1-{[(1-methylcyclopropyl)sulfonyl]carbamoyl}cyclopropyl]-3,6-dioxo-17-(pyridin-4-yl)-1,1a,3,4,5,6,9,10,18,19,20,21,22,22a-tetradecahydro-8H-7,10-methanocyclopropa[18,19][1,10,3,6]dioxadiazacyclononadecino[11,12-b]quinoline-8-carboxamide] | 1.59 nM | 1.65 nM | 296 nM
C=C[C@@H]1C[C@]1(NC(=O)[C@@H]1C[C@@H]2CN1C(=O)[C@H](C(C)(C)C)NC(=O)O[C@@H]1C[C@H]1CCCCCc1c(nc3ccccc3c1-c1ccccn1)O2)C(=O)NS(=O)(=O)C1(C)CC1 [Example 245, (1aR,5S,8S,10R,22aR)-5-tert-butyl-N-[(1R,2S)-2-ethenyl-1-{[(1-methylcyclopropyl)sulfonyl]carbamoyl}cyclopropyl]-3,6-dioxo-17-(pyridin-2-yl)-1,1a,3,4,5,6,9,10,18,19,20,21,22,22a-tetradecahydro-8H-7,10-methanocyclopropa[18,19][1,10,3,6]dioxadiazacyclononadecino[11,12-b]quinoline-8-carboxamide] | 0.546 nM | 1.41 nM | 128 nM
C=C[C@@H]1C[C@]1(NC(=O)[C@@H]1C[C@@H]2CN1C(=O)[C@H](C(C)(C)C)NC(=O)O[C@@H]1C[C@H]1CCCCCc1c(nc3ccccc3c1-c1cccnc1)O2)C(=O)NS(=O)(=O)C1(C)CC1 [Example 246, (1aR,5S,8S,10R,22aR)-5-tert-butyl-N-[(1R,2S)-2-ethenyl-1-{[(1-methylcyclopropyl)sulfonyl]carbamoyl}cyclopropyl]-3,6-dioxo-17-(pyridin-3-yl)-1,1a,3,4,5,6,9,10,18,19,20,21,22,22a-tetradecahydro-8H-7,10-methanocyclopropa[18,19][1,10,3,6]dioxadiazacyclononadecino[11,12-b]quinoline-8-carboxamide] | 1.02 nM | 1.14 nM | 211 nM
C=C[C@@H]1CC1(NC(=O)[C@@H]1C[C@@H]2CN1C(=O)[C@H](C(C)(C)C)NC(=O)O[C@@H]1C[C@H]1CCCCCc1c(nc3ccccc3c1CN1CCOCC1)O2)C(=O)NS(=O)(=O)C1(C)CC1 (stereo partly drawn) [Example 248, potassium {[(1R,2S)-1-({[(1aR,5S,8S,10R,22aR)-5-tert-butyl-17-(morpholin-4-ylmethyl)-3,6-dioxo-1,1a,3,4,5,6,9,10,18,19,20,21,22,22a-tetradecahydro-8H-7,10-methanocyclopropa[18,19][1,10,3,6]dioxadiazacyclononadecino[11,12-b]quinolin-8-yl]carbonyl}amino)-2-ethenylcyclopropyl]carbonyl}[(1-methylcyclopropyl)sulfonyl]azanide] | 0.1 nM | 0.348 nM | 40.2 nM
C=C[C@@H]1C[C@]1(NC(=O)[C@@H]1C[C@@H]2CN1C(=O)[C@H](C1CCCCC1)NC(=O)O[C@@H]1C[C@H]1CCCCCc1c(nc3ccccc3c1OCCCN1CC(F)(F)C1)O2)C(=O)NS(=O)(=O)C1(C)CC1 [Example 249, (1aR,5S,8S,10R,22aR)-5-cyclohexyl-17-[3-(3,3-difluoroazetidin-1-yl)propoxy]-N-[(1R,2S)-2-ethenyl-1-{[(1-methylcyclopropyl)sulfonyl]carbamoyl}cyclopropyl]-3,6-dioxo-1,1a,3,4,5,6,9,10,18,19,20,21,22,22a-tetradecahydro-8H-7,10-methanocyclopropa[18,19][1,10,3,6]dioxadiazacyclononadecino[11,12-b]quinoline-8-carboxamide] | 0.026 nM | 0.5 nM | 7.55 nM
C=C[C@@H]1CC1(NC(=O)[C@@H]1C[C@@H]2CN1C(=O)[C@H](C1CCCCC1)NC(=O)O[C@@H]1C[C@H]1CCCCCc1c(nc3ccccc3c1OCCCN1CC(F)C1)O2)C(=O)NS(=O)(=O)C1(C)CC1 (stereo partly drawn) [Example 250] | 0.024 nM | 0.16 nM | 4.45 nM
C=C[C@@H]1C[C@]1(NC(=O)[C@@H]1C[C@@H]2CN1C(=O)[C@H](C1CCCCC1)NC(=O)O[C@@H]1C[C@H]1CCCCCc1c(nc3ccccc3c1OCCCN1CCN(C)CC1)O2)C(=O)NS(=O)(=O)C1(C)CC1 [Example 251, (1aR,5S,8S,10R,22aR)-5-cyclohexyl-N-[(1R,2S)-2-ethenyl-1-{[(1-methylcyclopropyl)sulfonyl]carbamoyl}cyclopropyl]-17-[3-(4-methylpiperazin-1-yl)propoxy]-3,6-dioxo-1,1a,3,4,5,6,9,10,18,19,20,21,22,22a-tetradecahydro-8H-7,10-methanocyclopropa[18,19][1,10,3,6]dioxadiazacyclononadecino[11,12-b]quinoline-8-carboxamide] | 0.015 nM | 0.051 nM | 1.15 nM
